Format in all cases: binding
For one test, the target named is ERBB2 (Homo sapiens, UniProt P04626). Kind of test: KINOMEscan: ERBB2. On the procedure: The structure and synthesis of VIP152 were recently described by Lücking et al.. (Fig. 1A); however, the selectivity of the molecule in cellular systems has yet to be explored. […] We also performed this experiment at 1000 nM, where CDK9 was inhibited at 99%. […] We found a strong concordance between our data and those of Lücking when comparing the most inhibited kinases. Potential off-target effects of VIP152 were next tested in vitro at a concentration of 10 µM for off-target activity against a broad range of receptors, transporters, ion channels, and enzymes (n = 138) using the Eurofins Diversity Panel.
Kinomescan Kinase Profiling Assay
Kinomescan Assay was performed at DiscoverRX and described in Fabian, et al. 2005, Nat.
Biotechnol. In brief, kinases were produced and subsequently tagged with DNA for qPCR detection.
Streptavidin-coated magnetic beads were bound to biotinylated kinase ligands to serve as a solid support.
VIP152 was dissolved in DMSO and tested across a 10 serial threefold dilution set and compared to a test compound and a DMSO control. Kinases which were inhibited by VIP152 would not be bound to the solid-support resulting in decreased substrate for the qPCR reaction. Kinome map was produced via TreeSpot Analysis from DiscoverRX. […]
NanoBRETTM Target Engagement Assay Protocol […]
HEK293 cells were grown to 70-80% confluence appropriately prior to assay and subsequently trypsinized. Lipid:DNA complexes were prepared as follows. A 10µg/mL solution of DNA in Opti-MEM without serum consisting of the following ratios of carrier DNA and DNA encoding NanoLuc fusion were prepared.
9.0µg/mL of Transfection Carrier DNA, 1.0µg/mL of NanoLuc fusion vector DNA, and 1mL of Opti-MEM without phenol red. The solution was mixed thoroughly. Next, 30µL of FuGENE HD Transfection Reagent was added into each mL of DNA mixture to form the lipid:DNA complex and mixed by inversion 10 times followed by a 20 minute incubation at room temperature. […]

For the next test, the target named is Cannabinoid CB1 (Homo sapiens, UniProt P21554). In words: Eurofins Diversity Panel. As to conditions: hum, Conc. 10 μM.
The target of another test is Dopamine D3 (Homo sapiens, UniProt P35462). Kind of test: Eurofins Diversity Panel. Conditions: hum, Conc. 10 μM.
The next test relates to GABAA, Muscimol, Central. Kind of test: Eurofins Diversity Panel. As to conditions: rat, Conc. 10 μM.
The target in the next test is SNARK (Homo sapiens, UniProt Q9H093). Kind of test: KINOMEscan: SNARK. Conditions: 100 nM, read-out: Percent Control.
In another test the target is SRPK2 (Homo sapiens, UniProt P78362). In words: KINOMEscan: SRPK2. Conditions: 100 nM, read-out: Percent Control.
The target in another test is STK16 (Homo sapiens, UniProt O75716). In words: KINOMEscan: STK16. As to conditions: 100 nM, read-out: Percent Control.
Another test concerns the target EGFR(G719S) (Homo sapiens, UniProt P00533, G719S). In words: KINOMEscan: EGFR(G719S). As to conditions: 1000 nM, read-out: Percent Control.
The next test concerns the target EPHA5 (Homo sapiens, UniProt P54756). In words: KINOMEscan: EPHA5. As to conditions: 1000 nM, read-out: Percent Control.
The target of another test is ERBB4 (Homo sapiens, UniProt Q15303). Kind of test: KINOMEscan: ERBB4. Conditions: 1000 nM, read-out: Percent Control.
A further test has as its target FLT3(K663Q) (Homo sapiens, UniProt P36888, K663Q). Kind of test: KINOMEscan: FLT3(K663Q). As to conditions: 1000 nM, read-out: Percent Control.
The target in a further test is FLT4 (Homo sapiens, UniProt P35916). In words: KINOMEscan: FLT4. Conditions: 1000 nM, read-out: Percent Control.
For the next test, the target named is FYN (Homo sapiens, UniProt P06241). In words: KINOMEscan: FYN. Conditions: 1000 nM, read-out: Percent Control.
In test [1] the target is JAK2(JH1domain-catalytic) (Homo sapiens, UniProt O60674). Kind of test: KINOMEscan: JAK2(JH1domain-catalytic). As to conditions: 1000 nM, read-out: Percent Control.
The target in another test is KIT(D816V) (Homo sapiens, UniProt P10721, D816V). In words: KINOMEscan: KIT(D816V). Conditions: 1000 nM, read-out: Percent Control.
Another test has as its target MAP4K3 (Homo sapiens, UniProt Q8IVH8). Kind of test: KINOMEscan: MAP4K3. Conditions: 1000 nM, read-out: Percent Control.
Another test concerns the target MEK3 (Homo sapiens, UniProt P46734). Kind of test: KINOMEscan: MEK3. Conditions: 1000 nM, read-out: Percent Control.

Sequence of ERBB2 (P04626 23-1255): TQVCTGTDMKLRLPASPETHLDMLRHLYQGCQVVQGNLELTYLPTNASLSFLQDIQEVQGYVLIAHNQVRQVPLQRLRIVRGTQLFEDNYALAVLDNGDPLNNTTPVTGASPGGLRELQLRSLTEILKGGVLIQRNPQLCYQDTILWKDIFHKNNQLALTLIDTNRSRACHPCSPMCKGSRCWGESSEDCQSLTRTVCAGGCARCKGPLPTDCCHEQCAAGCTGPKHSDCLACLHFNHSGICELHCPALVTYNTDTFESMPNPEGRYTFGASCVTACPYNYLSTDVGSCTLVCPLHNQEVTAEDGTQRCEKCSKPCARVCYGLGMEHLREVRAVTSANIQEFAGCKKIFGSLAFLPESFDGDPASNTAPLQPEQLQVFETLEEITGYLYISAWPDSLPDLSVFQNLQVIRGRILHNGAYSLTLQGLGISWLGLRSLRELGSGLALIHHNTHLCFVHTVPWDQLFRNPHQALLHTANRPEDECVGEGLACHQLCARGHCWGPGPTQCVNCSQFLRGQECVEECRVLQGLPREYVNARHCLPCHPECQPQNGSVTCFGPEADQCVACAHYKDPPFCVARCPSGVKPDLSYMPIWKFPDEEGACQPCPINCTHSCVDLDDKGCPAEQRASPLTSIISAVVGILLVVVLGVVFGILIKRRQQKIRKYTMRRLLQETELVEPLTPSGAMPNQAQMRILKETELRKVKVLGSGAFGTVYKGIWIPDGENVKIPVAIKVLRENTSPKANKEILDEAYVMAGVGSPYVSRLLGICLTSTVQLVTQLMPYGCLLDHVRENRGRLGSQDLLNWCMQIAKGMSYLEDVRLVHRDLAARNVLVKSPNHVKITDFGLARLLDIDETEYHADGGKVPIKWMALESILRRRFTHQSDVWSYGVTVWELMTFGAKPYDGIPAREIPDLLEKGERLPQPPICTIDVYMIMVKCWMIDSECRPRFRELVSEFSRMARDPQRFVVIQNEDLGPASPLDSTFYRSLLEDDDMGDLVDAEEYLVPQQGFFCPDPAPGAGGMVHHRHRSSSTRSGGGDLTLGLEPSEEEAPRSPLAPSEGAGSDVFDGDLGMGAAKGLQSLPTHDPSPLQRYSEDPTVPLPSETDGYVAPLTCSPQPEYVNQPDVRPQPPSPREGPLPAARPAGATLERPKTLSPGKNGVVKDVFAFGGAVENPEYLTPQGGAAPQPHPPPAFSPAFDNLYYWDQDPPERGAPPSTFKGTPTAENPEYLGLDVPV
Sequence of MAP4K3 (Q8IVH8 whole entry): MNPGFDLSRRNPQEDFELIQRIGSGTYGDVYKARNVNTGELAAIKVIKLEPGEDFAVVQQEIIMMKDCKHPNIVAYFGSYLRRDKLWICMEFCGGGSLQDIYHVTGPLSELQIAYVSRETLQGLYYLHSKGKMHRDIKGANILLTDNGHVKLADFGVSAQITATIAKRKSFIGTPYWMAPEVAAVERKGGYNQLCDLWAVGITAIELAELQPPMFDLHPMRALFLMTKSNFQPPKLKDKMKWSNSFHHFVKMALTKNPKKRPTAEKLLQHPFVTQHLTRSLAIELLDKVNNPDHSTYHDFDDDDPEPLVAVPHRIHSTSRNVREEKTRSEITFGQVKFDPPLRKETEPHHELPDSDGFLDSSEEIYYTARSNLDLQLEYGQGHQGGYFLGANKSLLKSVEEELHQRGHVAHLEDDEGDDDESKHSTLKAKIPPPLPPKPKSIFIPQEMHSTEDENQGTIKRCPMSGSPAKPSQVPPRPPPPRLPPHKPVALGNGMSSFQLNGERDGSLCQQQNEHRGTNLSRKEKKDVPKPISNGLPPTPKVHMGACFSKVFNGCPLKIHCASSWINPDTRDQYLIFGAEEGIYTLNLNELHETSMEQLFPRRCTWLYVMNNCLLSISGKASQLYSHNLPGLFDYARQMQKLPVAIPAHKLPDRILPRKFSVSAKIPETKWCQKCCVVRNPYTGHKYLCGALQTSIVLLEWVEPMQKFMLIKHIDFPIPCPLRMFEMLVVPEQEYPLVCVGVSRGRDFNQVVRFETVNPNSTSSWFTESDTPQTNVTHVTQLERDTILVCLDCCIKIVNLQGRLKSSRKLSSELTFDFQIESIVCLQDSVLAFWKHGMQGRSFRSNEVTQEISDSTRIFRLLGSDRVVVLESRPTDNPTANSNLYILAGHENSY
Sequence of SRPK2 (P78362 whole entry): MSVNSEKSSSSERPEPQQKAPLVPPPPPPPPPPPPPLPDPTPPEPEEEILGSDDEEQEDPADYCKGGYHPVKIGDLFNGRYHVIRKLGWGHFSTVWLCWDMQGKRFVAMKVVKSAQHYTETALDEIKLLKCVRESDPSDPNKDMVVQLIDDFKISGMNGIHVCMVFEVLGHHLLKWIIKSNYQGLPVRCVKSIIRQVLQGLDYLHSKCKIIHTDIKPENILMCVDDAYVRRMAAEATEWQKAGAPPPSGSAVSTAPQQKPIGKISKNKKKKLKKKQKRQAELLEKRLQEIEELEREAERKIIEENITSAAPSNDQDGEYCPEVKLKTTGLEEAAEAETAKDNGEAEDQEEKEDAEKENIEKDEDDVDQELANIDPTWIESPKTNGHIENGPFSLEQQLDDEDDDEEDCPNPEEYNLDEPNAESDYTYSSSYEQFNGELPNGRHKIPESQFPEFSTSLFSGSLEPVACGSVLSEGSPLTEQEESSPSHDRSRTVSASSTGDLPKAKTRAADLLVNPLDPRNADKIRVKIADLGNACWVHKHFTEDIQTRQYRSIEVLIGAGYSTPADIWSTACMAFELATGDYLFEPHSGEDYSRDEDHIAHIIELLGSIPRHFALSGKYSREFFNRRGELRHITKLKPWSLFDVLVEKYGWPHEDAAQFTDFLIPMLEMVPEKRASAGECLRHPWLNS
Sequence of JAK2(JH1domain-catalytic) (O60674 849-1132 limits assumed): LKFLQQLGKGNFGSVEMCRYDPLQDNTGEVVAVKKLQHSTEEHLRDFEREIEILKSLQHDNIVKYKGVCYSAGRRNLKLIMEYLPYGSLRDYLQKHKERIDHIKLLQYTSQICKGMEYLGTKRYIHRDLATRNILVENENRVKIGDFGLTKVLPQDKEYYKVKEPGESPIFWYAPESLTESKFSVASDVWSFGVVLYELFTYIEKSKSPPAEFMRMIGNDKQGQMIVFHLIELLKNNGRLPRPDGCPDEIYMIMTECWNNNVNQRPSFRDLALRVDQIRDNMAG
Sequence of SNARK (Q9H093 whole entry): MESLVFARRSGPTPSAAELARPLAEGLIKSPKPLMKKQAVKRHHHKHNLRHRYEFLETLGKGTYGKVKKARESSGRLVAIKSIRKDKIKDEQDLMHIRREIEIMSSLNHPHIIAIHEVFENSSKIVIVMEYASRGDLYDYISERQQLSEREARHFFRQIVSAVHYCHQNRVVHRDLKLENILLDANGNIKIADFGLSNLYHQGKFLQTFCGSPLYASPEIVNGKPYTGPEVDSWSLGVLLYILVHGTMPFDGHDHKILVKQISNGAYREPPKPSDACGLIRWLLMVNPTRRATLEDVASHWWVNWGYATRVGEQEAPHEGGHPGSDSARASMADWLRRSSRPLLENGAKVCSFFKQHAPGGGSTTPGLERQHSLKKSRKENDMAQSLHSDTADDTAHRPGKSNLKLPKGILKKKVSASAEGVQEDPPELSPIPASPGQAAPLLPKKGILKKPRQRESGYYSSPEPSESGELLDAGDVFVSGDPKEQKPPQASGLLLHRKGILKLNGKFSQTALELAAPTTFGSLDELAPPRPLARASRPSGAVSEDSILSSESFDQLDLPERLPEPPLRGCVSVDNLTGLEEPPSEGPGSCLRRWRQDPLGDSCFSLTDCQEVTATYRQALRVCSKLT
Sequence of KIT(D816V) (P10721 26-976 D816V): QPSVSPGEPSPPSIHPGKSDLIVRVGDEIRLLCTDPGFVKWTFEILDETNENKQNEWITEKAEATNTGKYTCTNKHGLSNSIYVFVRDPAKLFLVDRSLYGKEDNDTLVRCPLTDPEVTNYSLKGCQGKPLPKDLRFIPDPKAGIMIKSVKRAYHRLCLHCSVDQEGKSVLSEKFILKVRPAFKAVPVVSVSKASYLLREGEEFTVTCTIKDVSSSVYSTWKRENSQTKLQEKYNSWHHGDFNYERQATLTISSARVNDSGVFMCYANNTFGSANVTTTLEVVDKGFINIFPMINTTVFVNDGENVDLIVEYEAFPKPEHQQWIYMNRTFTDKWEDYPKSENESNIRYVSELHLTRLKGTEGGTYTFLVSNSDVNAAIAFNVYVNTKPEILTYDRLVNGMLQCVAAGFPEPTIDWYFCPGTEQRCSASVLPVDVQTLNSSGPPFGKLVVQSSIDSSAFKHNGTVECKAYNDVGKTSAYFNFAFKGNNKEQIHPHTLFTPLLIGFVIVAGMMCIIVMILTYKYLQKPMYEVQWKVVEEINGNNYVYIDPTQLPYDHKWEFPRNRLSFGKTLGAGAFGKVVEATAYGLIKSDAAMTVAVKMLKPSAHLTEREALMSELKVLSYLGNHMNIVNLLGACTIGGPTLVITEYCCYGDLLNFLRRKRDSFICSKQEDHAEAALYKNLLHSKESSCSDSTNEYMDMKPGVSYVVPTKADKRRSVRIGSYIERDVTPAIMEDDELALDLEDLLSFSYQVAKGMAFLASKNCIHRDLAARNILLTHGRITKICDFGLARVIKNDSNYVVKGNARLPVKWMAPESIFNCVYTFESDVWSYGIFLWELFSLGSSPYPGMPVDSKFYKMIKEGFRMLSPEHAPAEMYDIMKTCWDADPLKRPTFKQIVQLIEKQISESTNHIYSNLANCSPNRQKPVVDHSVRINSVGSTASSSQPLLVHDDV
Sequence of MEK3 (P46734 whole entry): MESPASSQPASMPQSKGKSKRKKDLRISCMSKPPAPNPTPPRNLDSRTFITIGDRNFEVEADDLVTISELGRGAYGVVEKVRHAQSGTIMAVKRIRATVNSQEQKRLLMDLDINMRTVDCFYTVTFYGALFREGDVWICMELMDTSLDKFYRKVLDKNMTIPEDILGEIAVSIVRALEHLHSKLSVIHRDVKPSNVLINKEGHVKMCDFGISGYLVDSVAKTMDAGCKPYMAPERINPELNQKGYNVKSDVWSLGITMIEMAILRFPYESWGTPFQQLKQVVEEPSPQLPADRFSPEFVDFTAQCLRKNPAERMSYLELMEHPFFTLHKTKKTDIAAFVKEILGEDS

Usually inhibition stands for how much of the control response was suppressed. On to `COc1cc(F)ccc1-c1cc(Nc2cc(CS(C)(=N)=O)ccn2)ncc1F` (stereo not shown) [VIP152], for which the inhibition at 0.1 µM on ERBB2 (100 nM, read-out: inhibition of ERBB2 relative to control) worked out at 65%. Further, the remaining binding at 0.1 µM on ERBB2 (ERBB2, 100 nM, read-out: Percent Control) came out at 35%; at SNARK, 100%; at SRPK2, 100%; at STK16, 100%. The remaining binding at 1 µM at ERBB2 (ERBB2, 1000 nM, read-out: Percent Control) came out at 100%; on EGFR(G719S), 86%; at EPHA5 it was 88%; on ERBB4, 88%; on FLT3(K663Q), 80%; at FLT4 it was 74%. Further, the remaining binding at 1 µM was 91% on FYN; 66% in test [1]; 88% at KIT(D816V); 57% on MAP4K3; 84% on MEK3. Also, the inhibition at 10 µM at Cannabinoid CB1 stood at 16%; against Dopamine D3, 7%. Moreover, the “% Inh.” value in the test with GABAA, Muscimol, Central is -3%.
